Experimental data taken from patent publication US4600721A, “Pharmaceutical preparation” (Ludwig Heumann & Co., GmbH, priority 1984, dated 1986).

Tests used:
[1] = test system: lipoxygenase and cyclooxygenase; conditions: known inhibitors, statement in words; cited from earlier work
[2] = test system: Acute inflammatory oedema of the paws; test: Rat paw oedema test (carrageenin); type: in vivo; conditions: po, i.g., 1 hour after carrageenin injection, inhibition of increase in paw volume, male rats
Method: Acute inflammatory oedema of the paws was induced in male rats (100-120 g) by subplantar injection of 0.1 ml of 2% carrageenin (dissolved in aqueous 0.9% NaCl solution). The volume of the paws was measured with a paw volume measuring instrument 1 hour and 4 hours after the carrageenin injection. The differences in paw volume between the two measurements was calculated. The test substances were suspended in 1% tylose and administered intragastrally through a stomach tube one hour after the carrageenin injection.
The controls were given vehicle alone (1% tylose). The percentage inhibition of increase in volume in the treated animals was obtained from a comparison with the untreated controls. The average inhibitory doses (ED50) were calculated on the basis of the regression graphs.

[3] = test system: PGE 2 synthesis and release; test: Inhibition of PGE 2 synthesis and release in vitro; type: cell-based
[4] = test system: LTC 4 synthesis and release; test: Inhibition of LTC 4 synthesis and release in vitro; type: cell-based
leucocyte migration = test: Leucocyte migration test (carrageenin-soaked polyester sponges); type: in vivo, rat; conditions: male rats, 24 hours
Method: Polyester sponges soaked in 2% carrageenin solution were implanted subcutaneously in the neck region of male rats (140-150 g) (see G. A. Higgs et al, Eur. J. Pharmacol. 66, 81 (1980), A. W. Ford-Hutchinson et al, J.Pharmacol. Methods 1, 3 (1978)). The sponges were removed after 24 hours. The leucocytes which had migrated in were washed out with a PBS solution (pH 7.4, 0.5% trypsin, 10 units/ml of heparin) for 30 minutes at 37° C. The sponges were then carefully squeezed and centrifuged (15 minutes, 500 revs/min). The leucocytes in the washing liquid were then counted. The test substances which had been taken up in 1% tylose and the vehicle (1% tylose) were administered intragastrally with a stomach tube immediately after implantation of the sponge and then after 5 hours and after 21 hours. The percentage inhibition of leucocyte migration after administration of the test substances was determined by comparison with the controls. The average inhibitory doses (ED50) were calculated from the regression graphs.

Row | Structure (SMILES) | selective inhibitory action on lipoxygenase or inhibition of both lipoxygenase and cyclooxygenase [1] | ED50 [2] [mg/kg] | PGE 2 (% of controls) ([3]; at 10^-4) | PGE 2 (% of controls) ([3]; at 10^-5) | PGE 2 (% of controls) ([3]; at 10^-6) | LTC 4 (% of controls) ([4]; at 10^-5) | LTC 4 (% of controls) ([4]; at 10^-6) | Inhibition of leucocyte migration (control = 0%) (leucocyte migration; 40 mg/kg i.g.) [%] | LTC 4 (% of controls) ([4]; at 10^-4) | Inhibition of leucocyte migration (control = 0%) (leucocyte migration; 50 mg/kg i.g.) [%]
1 | CC(C(=O)O)c1ccc2oc(-c3ccc(Cl)cc3)nc2c1 (centres unmarked) [Benoxaprofene] | known inhibitors of this kind | – | – | – | – | – | – | – | – | –
2 | CC=NNc1nc2ccccc2s1 [Example 1, N-(benzothiazol-2-yl)-acetaldehyde hydrazone] | – | 15 | 12 % of controls | 38 % of controls | 89 % of controls | > 100 % of controls | > 100 % of controls | 50 | – | –
3 | CC(C)=NNc1nc2ccccc2s1 [Example 2, N-(benzothiazol-2-yl)-acetone hydrazone] | – | 10 | 20 % of controls | 43 % of controls | 103 % of controls | 41 % of controls | 89 % of controls | – | 16 % of controls | 34
4 | CCC=NNc1nc2ccccc2s1 [Example 3, N-(benzothiazol-2-yl)-propionaldehyde hydrazone] | – | 20 | 8 % of controls | 37 % of controls | 61 % of controls | > 100 % of controls | > 100 % of controls | – | 24 % of controls | –
5 | CCC(C)=NNc1nc2ccccc2s1 [Example 4, N-(benzothiazol-2-yl)-methyl ethyl ketone hydrazone] | – | 10 | – | – | – | – | – | – | – | –
6 | CC=NNc1nc2ccccc2o1 [Example 5, N-(benzoxazol-2-yl)-acetaldehyde hydrazone] | – | 20 | – | – | – | – | – | – | – | –
7 | CC(C)=NNc1nc2ccccc2o1 [Example 6, N-(benzoxazol-2-yl)-acetone hydrazone] | – | 10 | – | – | – | – | – | – | – | –
8 | CCC=NNc1nc2ccccc2o1 [Example 7, N-(benzoxazol-2-yl)-propionaldehyde hydrazone] | – | 20 | – | – | – | – | – | – | – | –
9 | O=CNNc1nc2ccccc2s1 [Example 8, benzothiazol-2-one-(β-formyl hydrazone)] | – | 14 | 82 % of controls | 112 % of controls | 105 % of controls | 70 % of controls | > 100 % of controls | – | 11 % of controls | 67
